Earlier results, collected in PMC2891520 (The Journal of neuroscience : the official journal of the …, 2010).

Target: CaMKII (Homo sapiens, UniProt Q9UQM7)
Conditions: ref Vest et al., 2010

Question: Which “block of autonomous CaMKII activity once generated” value does the source give for `COc1ccc(S(=O)(=O)N(CCO)c2ccccc2CN(C)C/C=C/c2ccc(Cl)cc2)cc1` [KN93] here?
Answer: Its value is “does not block autonomous activity once it is generated”.
